# Measured values reported in patent US6043279A, “Compounds having selective activity for retinoid X receptors, and means for modulation of processes mediated by retinoid X receptors” (priority 1997, dated 2000).
# Legend:
# Format in all cases: cell-based
# [1] = molecular target: T1, RXRα (Homo sapiens, UniProt P19793); test: co-transfection (cis-trans) assay in CV-1 cells, RXRα; conditions: for Emax: CV-1, maximal response relative to all-trans-retinoic acid at 10^-5 M, read-out: Efficacy RXRα; for EC50: CV-1 cells, luciferase reporter, concentration giving 50% of maximal observed response, read-out: Potency (nM) RXRα
# T1 construct: expressed in transfected cells; host or cells: CV-1 (monkey kidney)
# T1 sequence (P19793 1-462): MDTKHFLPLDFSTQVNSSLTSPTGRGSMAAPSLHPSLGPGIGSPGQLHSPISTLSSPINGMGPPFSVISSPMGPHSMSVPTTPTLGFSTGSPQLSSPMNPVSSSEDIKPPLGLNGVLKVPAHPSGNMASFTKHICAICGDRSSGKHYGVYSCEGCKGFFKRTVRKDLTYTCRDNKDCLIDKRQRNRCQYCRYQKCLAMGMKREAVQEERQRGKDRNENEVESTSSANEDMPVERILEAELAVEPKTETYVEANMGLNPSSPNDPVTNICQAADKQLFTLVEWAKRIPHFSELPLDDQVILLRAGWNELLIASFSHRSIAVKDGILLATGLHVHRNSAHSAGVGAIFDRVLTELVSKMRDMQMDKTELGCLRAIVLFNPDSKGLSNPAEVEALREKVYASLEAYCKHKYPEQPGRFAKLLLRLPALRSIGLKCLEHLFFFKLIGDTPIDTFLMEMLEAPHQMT
# Description: (§1) The co-transfection assay provides a mechanism to evaluate the ability of a compound to modulate the transcription response initiated by an intracellular receptor. […] Berger et al., J. Steroid Biochem. Molec.
# (§2) Briefly, the co-transfection assay involves the introduction of two plasmids by transient transfection into a retinoid receptor-negative mammalian cell background. The first plasmid contains a retinoid receptor cDNA and directs constitutive expression of the encoded receptor. The second plasmid contains a cDNA that encodes for a readily quantifiable protein, e.g., firefly luciferase or chloramphenicol acetyl transferase (CAT), under control of a promoter containing a retinoid acid response element, which confers retinoid dependence on the transcription of the reporter. In this co-transfection assay, all retinoid receptors respond to all-trans-retinoic acid in a similar fashion. This assay can be used to accurately measure efficacy and potency of retinoic acid and synthetic retinoids as ligands that interact with the individual retinoid receptor subtypes.
# (§3) Accordingly, synthetic retinoid compounds of the current invention were evaluated for their interaction with retinoid receptor subtypes using the co-transfection assay in which CV-1 cells were co-transfected with one of the retinoid receptor subtypes, a reporter construct, and an internal control to allow normalization of the response for transfection efficiency. The following example is illustrative.
# (§4) Retinoids: All-trans-retinoic acid (RA) and 13-cis-retinoic acid (13-cis-RA) were obtained from Sigma. […] Retinoids were dissolved in dimethylsulfoxide for use in the transcriptional activation assays.
# (§5) Co-transfection Assay In CV-1 Cells: A monkey kidney cell line, CV-1, was used in the cis-trans assay. Cells were transfected with two plasmids. […] The cis-vector contains an easily assayable gene product, in this case the firefly luciferase, coupled to a retinoid-responsive promoter, i.e., an RARE or RXRE. Addition of retinoic acid or an appropriate synthetic retinoid results in the formation of a retinoid-RAR or -RXR complex that activates the expression of luciferase gene, causing light to be emitted from cell extracts. The level of luciferase activity is directly proportional to the effectiveness of the retinoid-receptor complex in activating gene expression. This sensitive and reproducible co-transfection approach permits the identification of retinoids that interact with the different receptor isoforms.
# (§6) Cells were cultured in DMEM supplemented with 10% charcoal resin-stripped fetal bovine serum, and experiments were conducted in 96-well plates. […] Cells were transfected for 6 h and then washed to remove the precipitate. The cells were then incubated for 36 h with or without retinoid. […]
# [2] = molecular target: T2, RARβ (Homo sapiens, UniProt P10826); test: co-transfection (cis-trans) assay in CV-1 cells, RARβ; conditions: for Emax: CV-1, maximal response relative to all-trans-retinoic acid at 10^-5 M, read-out: Efficacy RARβ; for EC50: CV-1 cells, luciferase reporter, concentration giving 50% of maximal observed response, read-out: Potency (nM) RARβ
# T2 construct: expressed in transfected cells; host or cells: CV-1 (monkey kidney)
# T2 sequence (P10826 1-448 isoform P10826-2): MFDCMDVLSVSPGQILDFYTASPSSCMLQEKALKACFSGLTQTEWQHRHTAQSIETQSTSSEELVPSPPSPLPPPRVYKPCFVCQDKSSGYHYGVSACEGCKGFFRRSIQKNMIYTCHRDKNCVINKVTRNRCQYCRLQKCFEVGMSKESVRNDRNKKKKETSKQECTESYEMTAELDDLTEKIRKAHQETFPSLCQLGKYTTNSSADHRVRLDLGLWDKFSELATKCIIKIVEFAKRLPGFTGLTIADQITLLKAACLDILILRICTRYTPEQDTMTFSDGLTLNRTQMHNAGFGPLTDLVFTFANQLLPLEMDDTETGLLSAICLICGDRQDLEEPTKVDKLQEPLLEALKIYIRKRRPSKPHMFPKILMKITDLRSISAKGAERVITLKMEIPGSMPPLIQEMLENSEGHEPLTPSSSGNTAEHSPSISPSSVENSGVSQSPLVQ
# Description: as §1, §2, §3, §4, §5, §6
# [3] = molecular target: T3, RXRβ (Mus musculus, UniProt P28704); test: co-transfection (cis-trans) assay in CV-1 cells, RXRβ; conditions: for Emax: CV-1, maximal response relative to all-trans-retinoic acid at 10^-5 M, read-out: Efficacy RXRβ; for EC50: CV-1 cells, luciferase reporter, concentration giving 50% of maximal observed response, read-out: Potency (nM) RXRβ
# T3 construct: expressed in transfected cells; host or cells: CV-1 (monkey kidney)
# T3 sequence (P28704 1-520): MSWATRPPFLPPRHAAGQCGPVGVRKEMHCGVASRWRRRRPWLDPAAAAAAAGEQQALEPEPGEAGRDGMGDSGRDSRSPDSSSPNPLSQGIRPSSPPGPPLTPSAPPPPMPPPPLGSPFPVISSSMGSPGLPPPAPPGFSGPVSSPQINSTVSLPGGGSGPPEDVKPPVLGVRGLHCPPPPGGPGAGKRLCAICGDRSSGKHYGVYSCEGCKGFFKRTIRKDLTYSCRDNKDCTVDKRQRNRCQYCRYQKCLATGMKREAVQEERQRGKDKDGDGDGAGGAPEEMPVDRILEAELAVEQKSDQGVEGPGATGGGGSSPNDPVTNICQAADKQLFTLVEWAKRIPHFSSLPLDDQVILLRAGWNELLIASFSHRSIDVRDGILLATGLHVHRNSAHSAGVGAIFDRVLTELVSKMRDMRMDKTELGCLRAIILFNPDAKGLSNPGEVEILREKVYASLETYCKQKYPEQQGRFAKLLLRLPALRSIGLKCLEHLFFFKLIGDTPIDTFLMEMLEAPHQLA
# Description: as §1, §2, §3, §4, §5
# Cells were cultured in DMEM supplemented with 10% charcoal resin-stripped fetal bovine serum, and experiments were conducted in 96-well plates. […] Cells were transfected for 6 h and then washed to remove the precipitate. The cells were then incubated for 36 h with or without retinoid. After the transfection, all subsequent steps were performed on a Beckman Biomek Automated Workstation. […] All determinations were performed in triplicate in two independent experiments and were normalized for transfection efficiency by using β-galactosidase as the internal control. […] Efficacy values less than 5% are not statistically different than the 0% background.
Emax [1] [%],EC50 [1] [nM],Emax [2] [%],EC50 [2] [nM],Emax [3] [%],EC50 [3] [nM],Compound
86,440,< 2,> 10000,56,470,"C=C(c1ccc(C(=O)O)cc1)c1ccc(C(C)(C)C)cc1C [Compound 133, 4-[1-(2-methyl-4-t-butylphenyl)ethenyl]benzoic acid]"
47,270,< 2,> 10000,57,270,"Cc1cc(C(C)(C)C)ccc1C(=NO)c1ccc(C(=O)O)cc1 [Compound 137, 4-[(2-methyl-4-t-butylphenyl)carbonyl]benzoic acid oxime]"
